IC50 data for 31 compounds are collected here from patent publication US9499493B2, “2,4-pyrimidinediamine compounds and their uses” (Rigel Pharmaceuticals, Inc., priority 2002, dated 2016).

For test [1], the system named is cultured human mast cells (CHMC). In words: CHMC low cell density IgE activation: tryptase assay. The test is classed as cell-based. The conditions noted are these: anti-IgE. Put shortly:
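Read-out: tryptase released into supernatant, measured by substrate turnover over 30 min at RT. Low-density CHMC (1000-1500 cells/well, per donor degranulation activity) in MT buffer, 1 hr at 37° C, then anti-IgE challenge 30 min at 37° C.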

Test [2] shares this test system. In words: CHMC low cell density ionomycin activation: tryptase assay. The test is classed as cell-based.

For `CC(C)(C)OC(=O)COc1ccc(Nc2ncc(F)c(Nc3ccc(OCC(=O)OC(C)(C)C)cc3)n2)cc1` [R926574, N2,N4-Bis[4-(tert-butoxycarbonylmethyleneoxy)phenyl]-5-fluoro-2,4-pyrimidinediamine], the IC50 (usually the concentration that gives 50% inhibition) came out at 1.96 µM in test [1] and 2.63 µM in test [2].
For `CC(C)(C)OC(=O)COc1ccc(Nc2nc(Cl)c(Cl)c(Nc3ccc(OCC(=O)OC(C)(C)C)cc3)n2)cc1` [R926576, N2,N4-Bis(4-tert-butoxyoxycarbonylmethyleneoxyphenyl)-5,6-dichloro-2,4-pyrimidinediamine], in that order: greater than 10 µM and greater than 10 µM.
Taken in the same sequence, the figures for `CCOC(=O)c1cnc(Nc2ccc(OCC(=O)OC)cc2)nc1Nc1ccc(OCC(=O)OC(C)(C)C)cc1` [R926579, N4-(4-tert-Butoxycarbonylmethyleneoxyphenyl)-5-ethoxycarbonyl-N2-(4-methoxycarbonylmethyleneoxyphenyl)-2,4-pyrimidinediamine] were greater than 10 µM and greater than 10 µM.
Taken in the same sequence, the figures for `COC(=O)COc1ccc(Nc2ncc(C(=O)OC)c(Nc3ccc(OCC(=O)OC(C)(C)C)cc3)n2)cc1` [R926580, N4-(4-tert-Butoxycarbonylmethyleneoxyphenyl)-N2-(4-methoxycarbonylmethyleneoxyphenyl)-5-methoxycarbonyl-2,4-pyrimidinediamine] were 10 µM and greater than 10 µM.
In the case of `CCOC(=O)c1cnc(Nc2ccc(OCC(=O)OC)cc2)nc1Nc1ccc(OCC(=O)O)cc1` [R926583, N4-(4-Carboxymethyleneoxyphenyl)-5-ethoxycarbonyl-N2-(4-methoxycarbonylmethyleneoxyphenyl)-2,4-pyrimidinediamine], the IC50 in test [1] and in test [2] was greater than 10 µM in each case.
Consider `CCOC(=O)c1cnc(Nc2ccc(OCC(=O)O)cc2)nc1Nc1ccc(OCC(=O)OC)cc1` [R926584, N2-(4-Carboxymethyleneoxyphenyl)-5-ethoxycarbonyl-N4-(4-methoxycarbonylmethyleneoxyphenyl)-2,4-pyrimidinediamine], for which the IC50 in test [1] and in test [2] was greater than 10 µM each time.
Take `C=CCNC(=O)Nc1c(Nc2ccc(OCC(=O)OCC)cc2)nc(Nc2ccc(OCC(=O)OCC)cc2)nc1C(=O)OCC` [R926585]: the IC50 in test [1] and in test [2] was greater than 10 µM in each case.
Consider `CCOC(=O)COc1ccc(Nc2nc(Nc3ccc(OCC(=O)OCC)cc3)c(NC(=O)NC(=O)OCC)c(C(=O)OCC)n2)cc1` [R926586, N2,N4-Bis(4-ethoxycarbonylmethyleneoxyphenyl)-6-ethoxycarbonyl-5-(ethoxycarbonylaminocarbonylamino)-2,4-5-pyrimidinetriamine], for which the half-inhibitory concentration (IC50) in test [1] is 2.75 µM; in test [2] it was greater than 10 µM.
For `CCOC(=O)CNC(=O)Nc1c(Nc2ccc(OCC(=O)OCC)cc2)nc(Nc2ccc(OCC(=O)OCC)cc2)nc1C(=O)OCC` [R926587, N2,N4-Bis(4-ethoxycarbonylmethyleneoxyphenyl)-6-ethoxycarbonyl-5-(ethoxycarbonylmethyleneaminocarbonylamino)-2,4-pyrimidinediamine], in that order: greater than 10 µM and greater than 10 µM.
On to `CCOC(=O)COc1ccc(Nc2nc(Nc3ccc(OCC(=O)OCC)cc3)c(NC(=O)NC3CCCC3)c(C(=O)OCC)n2)cc1` [R926588, N2,N4-Bis(4-ethoxycarbonylmethyleneoxyphenyl)-6-ethoxycarbonyl-5-(cyclopentylaminocarbonylamino)-2,4-pyrimidinediamine], for which the IC50 was 7.85 µM in test [1] and greater than 10 µM in test [2].
For `CSc1nc(Nc2cccc(O)c2)nc(Nc2cccc(O)c2)c1Cl` [R926595, N2,N4-Bis(3-hydroxyphenyl)-5-chloro-6-thiomethyl-2,4-pyrimidinediamine], in that order: 4.85 µM and greater than 10 µM.
With `COCc1cc(=O)oc2cc(Nc3ncc(F)c(Nc4ccc5c(COC)cc(=O)oc5c4)n3)ccc12` [R926620], the half-inhibitory concentration (IC50) in test [1] is 8.35 µM; in test [2], greater than 10 µM.
For `CCOC(=O)COc1ccc(Nc2ncc(F)c(Nc3ccc(OCC(=O)OCC)c(Cl)c3)n2)cc1Cl` [R926676, N2,N4-Bis[3-chloro-4-(ethoxycarbonylmethyleneoxy)phenyl]-5-fluoro-2,4-pyrimidinediamine], in that order: 0.76 µM and greater than 10 µM.
For `COCOc1ccc(Nc2nc(Nc3cccc(O)c3)ncc2F)c(F)c1` [R926680, 5-Fluoro-N4-[2-fluoro-4-(methoxymethyleneoxy)phenyl]-N2-(3-hydroxyphenyl)-2,4-pyrimidinediamine], in that order: 1.71 µM and greater than 10 µM.
Taken in the same sequence, the figures for `CC1(C)COC(COc2ccc(Nc3ncc(F)c(Nc4cccc(O)c4)n3)cc2)=N1` [R926702, 5-Fluoro-N4-(3-hydroxyphenyl)-N2-[4-[(4,4-dimethyl-3-oxazolin-2-yl)methyleneoxy]phenyl]-2,4-pyrimidinediamine] were 0.886 µM and greater than 10 µM.
In the case of `CNC(=O)COc1ccc(Nc2ncc(F)c(Nc3ccc4c(c3)OCCO4)n2)cc1` [R926708, N4-(3,4-Ethylenedioxyphenyl)-5-fluoro-N2-[4-(N-methylamino)carbonylmethyleneoxyphenyl]-2,4-pyrimidinediamine], the IC50 in test [1] was 0.472 µM; in test [2] it was greater than 10 µM.
Regarding `Fc1cnc(Nc2ccc(OCCN3CCOCC3)cc2)nc1Nc1ccc2c(c1)OCCO2` [R926709, N4-(3,4-Ethylenedioxyphenyl)-5-fluoro-N2-[4-[2-(N-morpholino)ethyleneoxy]phenyl]-2,4-pyrimidinediamine], the IC50 was 0.858 µM in test [1] and greater than 10 µM in test [2].
With `Oc1cccc(Nc2ncc(F)c(Nc3ccc(OCCN4CCOCC4)cc3)n2)c1` [R926710, 5-Fluoro-N2-(3-hydroxyphenyl)-N4-[4-[2-(N-morpholino)ethyleneoxy]phenyl]-2,4-pyrimidinediamine], the figures for the IC50 in test [1] and in test [2] were 1.76 µM and greater than 10 µM, respectively.
For `Fc1cnc(Nc2ccc3c(c2)OCCO3)nc1Nc1ccc(OCCN2CCOCC2)cc1` [R926711, N2-(3,4-Ethylenedioxyphenyl)-5-fluoro-N4-[4-[2-(N-morpholino)ethyleneoxy]phenyl]-2,4-pyrimidinediamine], in that order: 1.25 µM and greater than 10 µM.
Taken in the same sequence, the figures for `CNC(=O)COc1ccc(Nc2ncc(F)c(Nc3ccc(C(C)(C)C)cc3)n2)cc1` [R926712, N4-(4-tert-Butylphenyl)-5-fluoro-N2-[4-(N-methylamino)carbonylmethyleneoxyphenyl]-2,4-pyrimidinediamine] were 1.08 µM and greater than 10 µM.
For `CNC(=O)COc1cccc(Nc2ncc(F)c(Nc3ccc(C(C)(C)C)cc3)n2)c1` [R926714, N4-(4-tert-Butylphenyl)-5-fluoro-N2-[3-(N-methylamino)carbonylmethyleneoxyphenyl]-2,4-pyrimidinediamine], in that order: 0.428 µM and greater than 10 µM.
`CN(C)C(=O)c1cc2cc(Nc3ncc(F)c(Nc4cccc(O)c4)n3)ccc2o1` [R926718, 5-Fluoro-N4-(3-hydroxyphenyl)-N2-[2-(N-dimethylamino)carbonylbenzofuran-5-yl]-2,4-pyrimidinediamine]: the IC50 is 1.83 µM in test [1] and greater than 10 µM in test [2].
For `CC(C)(C)c1ccc(Nc2nc(Nc3cccc(OCC(=O)O)c3)ncc2F)cc1` [R926726, N4-(4-tert-Butylphenyl)-N2-(3-carboxymethyleneoxyphenyl)-5-fluor-2,4-pyrimidinediamine], in that order: greater than 10 µM and greater than 10 µM.
For `CCOC(=O)CSc1ccc(Nc2ncc(F)c(Nc3ccc4c(c3)OCCO4)n2)cn1` [R926727, N2-[2-(Ethoxycarbonylmethylenethio)pyridin-5-yl]-N4-(3,4-ethylenedioxyphenyl)-5-fluoro-2,4-pyrimidinediamine], in that order: 0.387 µM and greater than 10 µM.
Taken in the same sequence, the figures for `CC(C)(C)c1ccc(Nc2nc(Nc3cccc(OCCO)c3)ncc2F)cc1` [R926728] were 0.482 µM and greater than 10 µM.
Regarding `CNC(=O)COc1cccc(Nc2ncc(F)c(Nc3ccc(OC(C)C)cc3)n2)c1` [R926730, 5-Fluoro-N4-(4-isopropoxyphenyl)-N2-[3-(N-methylamino)carbonylmethyleneoxyphenyl]-2,4-pyrimidinediamine], the IC50 was 0.251 µM in test [1] and greater than 10 µM in test [2].
Taken in the same sequence, the figures for `CC(C)Oc1ccc(Nc2nc(Nc3cccc(OCC(=O)O)c3)ncc2F)cc1` [R926731, 5-Fluoro-N2-[3-(carboxymethyleneoxy)phenyl]-N4-[4-(isopropoxy)phenyl]-2,4-pyrimidinediamine] were greater than 10 µM and greater than 10 µM.
Taken in the same sequence, the figures for `CNC(=O)COc1cccc(Nc2ncc(F)c(Nc3ccc4c(c3)OC(F)(F)C(F)(F)O4)n2)c1` [R926732, 5-Fluoro-N4-[3,4-(1,1,2,2-tetrafluoroethylendioxy)phenyl]-N2-[3-(N-methylamino)carbonylmethyleneoxyphenyl]-2,4-pyrimidinediamine] were 0.444 µM and greater than 10 µM.
Turning to `CNC(=O)COc1cccc(Nc2ncc(F)c(Nc3ccc(OC)c(OC)c3)n2)c1` [R926733, N4-(3,4-Dimethoxyphenyl)-5-fluoro-N2-[3-(N-methylamino)carbonylmethyleneoxyphenyl]-2,4-pyrimidinediamine], the results for the IC50 in test [1] and in test [2] were 1.5 µM and greater than 10 µM, respectively.
For `COc1ccc(Nc2nc(Nc3cccc(OCC(=O)NCC(O)CO)c3)ncc2F)cc1OC` (centres unmarked) [R926734, N2-[3-(N-2,3-Dihydroxypropylamino)carbonylmethyleneoxyphenyl]-N4-(3,4-dimethoxyphenyl)-5-fluoro-2,4-pyrimidinediamine], in that order: 4.49 µM and greater than 10 µM.
Taken in the same sequence, the figures for `OCCOc1cccc(Nc2ncc(CO)c(Nc3cccc(O)c3)n2)c1` [R926735, 5-(Hydroxymethyl)-N2-[3-(2-hydroxyethyleneoxy)phenyl]-N4-(3-hydroxyphenyl)-2,4-pyrimidinediamine] were 3.71 µM and greater than 10 µM.
